Where two headings read alike, the source gives them in different places.
Key:
[1] = biological target: motilin receptor (Homo sapiens, UniProt O43193); test: Selectivity for the ghrelin receptor versus the motilin receptor; type: binding
Excerpt: The level of agonist activity and selectivity for representative compounds of the invention are shown below in Table 4.

[2] = biological target: human ghrelin receptor (hGHS-R1a) (Homo sapiens, UniProt Q92847); test: Aequorin functional assay (ghrelin receptor), CHO-K1 cells co-expressing Gα16 and aequorin; type: cell-based; conditions: functional (agonist) activity, standard method; TFA salts unless otherwise noted
Excerpt: Coelenterazine (Molecular Probes, Leiden, The Netherlands). […] Compound Handling
• 1. […] Key Aspects of Method • 1. […] Results

[3] = biological target: T1, human growth hormone secretagogue receptor (hGHS-R1a) (Homo sapiens, UniProt Q92847); test: Competitive radioligand binding assay (ghrelin receptor), [125I]-ghrelin displacement on GHS-R/HEK 293 membranes
T1 construct: purchased PerkinElmer BioSignal #RBHGHSM, lot#1887; host or cells: HEK-293, stably transfected (membranes)

[4] = binding activity at the human ghrelin receptor, [125I]-ghrelin displacement, read-out: Ki
[5] = binding activity, standard method, TFA salts unless otherwise noted, read-out: Ki
[6] = binding activity at the human ghrelin receptor, [125I]-ghrelin competition, GHS-R/HEK 293 membranes, read-out: Ki

T1 sequence (Q92847 whole entry): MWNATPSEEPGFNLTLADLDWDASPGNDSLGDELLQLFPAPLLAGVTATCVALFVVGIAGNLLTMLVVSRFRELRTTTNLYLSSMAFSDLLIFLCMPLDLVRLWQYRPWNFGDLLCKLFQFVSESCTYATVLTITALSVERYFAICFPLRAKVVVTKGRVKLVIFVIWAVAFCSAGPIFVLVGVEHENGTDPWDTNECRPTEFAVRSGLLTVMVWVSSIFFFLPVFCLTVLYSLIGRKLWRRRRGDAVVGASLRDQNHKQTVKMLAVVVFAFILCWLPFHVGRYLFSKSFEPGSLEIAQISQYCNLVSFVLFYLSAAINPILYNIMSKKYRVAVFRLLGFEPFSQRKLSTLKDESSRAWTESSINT
Chain of human ghrelin receptor (hGHS-R1a) (Q92847 whole entry): as above
Chain of motilin receptor (O43193 whole entry): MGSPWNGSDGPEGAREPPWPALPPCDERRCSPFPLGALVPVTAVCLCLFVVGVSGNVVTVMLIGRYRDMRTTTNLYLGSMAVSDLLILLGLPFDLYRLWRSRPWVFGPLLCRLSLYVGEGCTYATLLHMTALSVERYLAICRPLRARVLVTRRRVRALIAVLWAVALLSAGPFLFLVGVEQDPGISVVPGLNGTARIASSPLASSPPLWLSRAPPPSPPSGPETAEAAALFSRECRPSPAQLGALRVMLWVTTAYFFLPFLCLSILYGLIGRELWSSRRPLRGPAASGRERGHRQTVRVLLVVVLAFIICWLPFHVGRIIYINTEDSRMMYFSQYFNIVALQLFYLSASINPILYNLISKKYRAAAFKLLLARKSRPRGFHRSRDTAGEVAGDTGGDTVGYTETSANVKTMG

SMILES	Selectivity [1]	EC50 [2] [nM]	Ki [3, 4] [nM]	Ki [3, 5] [nM]	Ki [3, 6] [nM]	Ki ([3]; [125I]-ghrelin competition, GHS-R/HEK 293 membranes, Table 3A, read-out: Binding Activity at the Human Ghrelin Receptor) [nM]	Ki ([3]; second table titled 3C (compounds 435-449), human ghrelin receptor, read-out: Ki) [nM]
CC1C(=O)NC(Cc2ccc(F)cc2)C(=O)NCCCc2ncccc2OCCNC(C2CC2)C(=O)N1C (single isomer, unassigned) [306a]	714/1	1 to 100	10 to 100	10 to 100	–	–	–
CC1C(=O)NC(Cc2ccc(F)cc2)C(=O)NCC2CC2c2ccccc2OCCNC(C2CC2)C(=O)N1C (single isomer, unassigned) [389a]	450/1	100 to 1000	–	10 to 100	–	–	–
CC(C)C[C@@H]1NCCOc2ccccc2C=CCNC(=O)[C@H](Cc2ccccc2Cl)NC(=O)C2(CCCC2)NC1=O (stereo in doubt) [compound 20]	1044/1	1 to 100	–	0.1 to 10	0.1 to 10	–	–
CCCCC1NCCOc2ccccc2CCCNC(=O)C(Cc2ccccc2)NC(=O)CN(C)C1=O (stereo not drawn) [Compound 1]	142/1	–	–	–	–	–	–
CCCC1NCCOc2ccccc2CCCNC(=O)C(Cc2ccccc2)NC(=O)C(C)N(C)C1=O (stereo not drawn) [Compound 4]	3012/1	1 to 100	–	10 to 100	10 to 100	–	–
CC(C)[C@@H]1NCCOc2ccccc2CCCNC(=O)[C@H](Cc2ccccc2)NC(=O)C2(CCCC2)NC1=O [Compound 9]	–	100 to 1000	–	100 to 1000	100 to 1000	–	–
CC[C@H](C)[C@@H]1NCCOc2ccccc2CCCNC(=O)[C@@H](Cc2ccccc2)NC(=O)[C@@H](C)NC1=O [compound 2]	–	100 to 1000	–	100 to 1000	100 to 1000	–	–
CCC[C@@H]1NCCOc2ccccc2CCCNC(=O)[C@@H](Cc2ccccc2)NC(=O)CN(CC)C1=O [compound 5]	–	100 to 1000	–	–	100 to 1000	–	–
CCCC1NCCOc2ccccc2CCCNC(=O)C(Cc2ccc(O)cc2)NC(=O)CN(C)C1=O (stereo not drawn) [compound 7]	>100/1	–	–	–	–	–	–
C[C@@H]1C(=O)N[C@H](Cc2ccccc2)C(=O)NCCCc2ccccc2OCCN[C@@H](C2CC2)C(=O)N1C [compound 17]	2500/1	1 to 100	–	0.1 to 10	0.1 to 10	–	–
CC(C)C1NCCOc2ccccc2C=CCNC(=O)C(Cc2ccccc2)NC(=O)C(C)N(C)C1=O (stereo not drawn) [compound 19]	>1700/1	–	–	100 to 1000	–	–	–
CC(C)CC1NCCOc2ccccc2C=CCNC(=O)C(Cc2cccc(Cl)c2)NC(=O)C2(CCCC2)NC1=O (stereo not drawn) [compound 21]	1078/1	1 to 100	–	0.1 to 10	0.1 to 10	–	–
CC[C@H](C)[C@@H]1NCCOc2ccccc2CCCNC(=O)[C@@H](Cc2ccccc2Cl)NC(=O)[C@@H](C)N(C)C1=O [compound 23]	–	1 to 100	–	0.1 to 10	0.1 to 10	–	–
CC[C@H](C)[C@@H]1NCCOc2ccccc2CCCNC(=O)[C@@H](Cc2cccc(Cl)c2)NC(=O)[C@@H](C)N(C)C1=O [compound 24]	3039/1	–	–	0.1 to 10	0.1 to 10	–	–
CC[C@H](C)[C@@H]1NCCOc2ccccc2CCCNC(=O)[C@@H](Cc2ccc(F)cc2)NC(=O)[C@@H](C)N(C)C1=O [compound 26]	>7700/1	1 to 100	–	0.1 to 10	0.1 to 10	–	–
CCC(C)C1NCCOc2ccccc2CCCNC(=O)C(Cc2ccc(OC)cc2)NC(=O)C(C)N(C)C1=O (stereo not drawn) [compound 27]	>7100/1	1 to 100	–	0.1 to 10	0.1 to 10	–	–
CC[C@H](C)[C@@H]1NCCOc2ccccc2CCCNC(=O)[C@@H](Cc2cccc3ccccc23)NC(=O)[C@@H](C)N(C)C1=O [compound 30]	–	1 to 100	–	0.1 to 10	0.1 to 10	–	–
CC[C@H](C)[C@@H]1NCCOc2ccccc2CCCNC(=O)[C@@H](Cc2ccc3ccccc3c2)NC(=O)[C@@H](C)N(C)C1=O [compound 31]	4900/1	1 to 100	–	0.1 to 10	0.1 to 10	–	–
CCC(C)C1NCCOc2ccccc2CCCNC(=O)C(Cc2cccs2)NC(=O)C(C)N(C)C1=O (stereo not drawn) [compound 34]	>1000/1	–	–	–	–	–	–
CCCC1NCCOc2ccccc2C=CCNC(=O)C(Cc2ccccc2)NC(=O)C(C)N(C)C1=O (stereo not drawn) [compound 39]	3400/1	–	–	–	–	–	–
CCC(C)C1NCCOc2ccccc2C=CCNC(=O)C(Cc2ccccc2)NC(=O)C(C)N(C)C1=O (stereo not drawn) [compound 40]	>3300/1	–	–	–	–	–	–

SMILES	Selectivity [1]	EC50 [2] [nM]	Ki [3, 4] [nM]	Ki [3, 5] [nM]	Ki [3, 6] [nM]	Ki ([3]; [125I]-ghrelin competition, GHS-R/HEK 293 membranes, Table 3A, read-out: Binding Activity at the Human Ghrelin Receptor) [nM]	Ki ([3]; second table titled 3C (compounds 435-449), human ghrelin receptor, read-out: Ki) [nM]
CCC(C)C1NCCOc2ccccc2CCCNC(=O)C(Cc2ccccc2)NC(=O)C(C)N(CC)C1=O (stereo not drawn) [compound 43]	3700/1	–	–	10 to 100	10 to 100	–	–
CC(C)C[C@@H]1NCCOc2ccccc2CCCNC(=O)[C@@H](Cc2ccccc2)NC(=O)C2(CCCC2)NC1=O [compound 97]	–	100 to 1000	–	10 to 100	100 to 1000	–	–
CC(C)C[C@@H]1NCCOc2ccccc2CCCNC(=O)[C@H](Cc2ccccc2)NC(=O)C2(CC2)NC1=O [compound 111]	–	100 to 1000	–	10 to 100	100 to 1000	–	–
CC(C)CC1NCCOc2ccccc2CCCNC(=O)C(Cc2ccccc2)NC(=O)C2(CCCC2)NC1=O (stereo not drawn) [compound 113]	–	100 to 1000	–	10 to 100	100 to 1000	–	–
CC(C)C[C@@H]1NCCOc2ccccc2/C=C/CNC(=O)C2(CCCC2)NC(=O)C2(CCCC2)NC1=O [compound 168]	–	> 1000	–	100 to 1000	–	100 to 1000	–
CCC(C)C1NCCOc2ccccc2CCCNC(=O)C(CC(C)C)NC(=O)C(C)N(C)C1=O (stereo not drawn) [compound 176]	105/1	–	–	–	–	–	–
CCC(C)C1NCCOc2cccnc2CCCNC(=O)C(Cc2ccccc2)NC(=O)C(C)N(C)C1=O (stereo not drawn) [compound 177]	>100/1	–	–	–	–	–	–
CCC(C)C1NCCOc2ccc(C(=O)O)cc2CCCNC(=O)C(Cc2ccccc2)NC(=O)C(C)N(C)C1=O (stereo not drawn) [compound 197]	100/1	–	–	–	–	–	–
C[C@@H]1C(=O)N[C@H](Cc2ccccc2)C(=O)NCCCc2ccccc2OCCN2CCCC[C@H]2C(=O)N1C [compound 226]	–	> 1000	–	10 to 100	–	–	–
CC1C(=O)NC(Cc2ccc(Cl)cc2)C(=O)NCCCc2ccccc2OCCNC(C2CC2)C(=O)N1C (stereo not drawn) [compound 299]	–	1 to 100	0.1 to 10	0.1 to 10	–	–	–
C[C@@H]1C(=O)N[C@H](Cc2ccc(O)c(C(C)(C)C)c2)C(=O)NCCCc2ccccc2OCCN[C@@H](C2CC2)C(=O)N1C [compound 311]	21/1	–	–	10 to 100	–	–	–
CC1C(=O)NC(Cc2ccc(Cl)cc2Cl)C(=O)NCCCc2ccccc2OCCNC(C2CC2)C(=O)N1C (stereo not drawn) [compound 314]	>5500/1	1 to 100	0.1 to 10	0.1 to 10	–	–	–
CC1C(=O)NC(Cc2ccc(C(F)(F)F)cc2)C(=O)NCCCc2ccccc2OCCNC(C2CC2)C(=O)N1C (stereo not drawn) [compound 322]	–	1 to 100	0.1 to 10	0.1 to 10	–	–	–
O=C1NC/C=C/c2ccccc2OCCN[C@@H](C2CC2)C(=O)NC2(CCCC2)C(=O)N[C@H]1Cc1cccc(Cl)c1 [compound 346]	–	1 to 100	10 to 100	10 to 100	–	–	–
CCC(C)C1NCCCCCCCCNC(=O)C(Cc2cccc(Cl)c2)NC(=O)C2(CCCC2)NC1=O (stereo not drawn) [compound 363]	35/1	–	–	–	–	–	–
CC1C(=O)NC(Cc2ccc(F)cc2)C(=O)NCCCc2cc(NS(C)(=O)=O)ccc2OCCNC(C2CC2)C(=O)N1C (stereo not drawn) [compound 374]	250/1	–	–	–	–	–	–
CCC(C)C1NCCOc2ccc(F)cc2CCCNC(=O)C(Cc2cccc(Cl)c2)NC(=O)C2(CCCC2)NC1=O (stereo not drawn) [compound 382]	74/1	–	–	–	–	–	–
CCC(C)C1NCCOc2ccccc2C2CC2CNC(=O)C(Cc2cccc(Cl)c2)NC(=O)C2(CCCC2)NC1=O (stereo not drawn) [compound 388]	400/1	–	–	–	–	–	–
CC1COc2ccccc2CCCNC(=O)C(Cc2ccc(F)cc2)NC(=O)C(C)N(C)C(=O)C(C2CC2)N1 (stereo not drawn) [compound 394]	1700/1	–	–	–	–	–	–
CCC(C)C1NCCOc2ccccc2CCCNC(=O)C(Cc2ccc(O)cc2)NC(=O)C(C)N(C)C1=O (stereo not drawn) [compound 445]	–	1 to 100	–	10 to 100	–	–	10 to 100

Reference: US20060025566A1, “Macrocyclic modulators of the ghrelin receptor” (Tranzyme Pharma Inc., priority 2003, published 2006)
